In US10434083B2, “Transmammary delivery of cyclooxygenase-2 inhibitors for analgesia in neonates” (Iowa State University Research Foundation, Inc., priority 2018, dated 2019):
Several values for one entry are separate records, joined by “and”; a condition that tells them apart may be missing. Identical values can stand only once.

Key:
[1] = Plasma firocoxib in nursing piglets after transmammary delivery (Example 1); type: in vivo, swine; details: piglets nursing sow given 1.5 mg/kg IM; from 2 hours post-exposure to end of study (48 h)
Procedure: Blood (sodium heparin tubes) was collected from the sow via jugular venipuncture at the following time points after drug administration via injection to the sow: 0, 1, 2, 3, 4, 6, 8, 10, 12, 24, 36 and 48 hours. The piglets had blood collected via jugular venipuncture at the following timepoints following sow drug administration via injection:
Piglets 1-3 was bled at times 0, 3, 8 and 24 hours
Piglets 4-6 was bled at times 1, 4, 10 and 36 hours
Piglets 7-9 was bled at times 2, 6, 12 and 48 hours.
Approximately 10 mL of blood was collected from the sow at each time point, and approximately 5 mL was collected from each piglet at each time point. Following blood collection at the 48 hour time point, the sow and piglets was euthanized and disposed of per study site procedures. […]
Plasma concentrations of firocoxib were measured with high-pressure liquid chromatography-tandem mass spectrometry (Shimadzu Prominence, Shimadzu Scientific Instruments, Columbia, Md., USA). […]
The standard curve of firocoxib concentration determined using porcine plasma was linear from 0.020 to 5.0 μg/mL and was accepted when the correlation coefficient exceeded 0.99 and measured values were within 15% of the actual values. The lower limit of quantification, defined as the lowest concentration on a linear standard curve with predicted concentrations within 15% of the actual concentration, was 0.020 μg/mL.

[2] = Necropsy and histopathology examination of lactating sows at 21 d; details: for Kidney: Focal interstitial nephritis (number of sows) / Kidney: Mild tubular ectasia (number of sows) / Kidney: Within normal limits (number of sows) / Liver: Within normal limits (number of sows) / Small Intestine: Within normal limits (number of sows) / Stomach: Within normal limits (number of sows): 21 d
Procedure: (§1) Thereafter, sows and piglets in all groups were humanely euthanized and examined for macroscopic signs of NSAID toxicity. Necropsies were performed on all animals to inspect for macroscopic signs of NSAID toxicity. Samples of kidney, liver, small intestine and stomach were sectioned into 0.5-1 cm slices and placed in plastic jars containing 10% buffered formalin in a 10:1 formalin:tissue ratio for histopathology examination.
(§2) Formalin-fixed sections of kidney, liver, small intestine and stomach from sows and 3 piglets/litter were trimmed and positioned in cassettes loaded into an automated tissue processor (Sakura VIP 5, Sakura Finetek, Torrance, Calif.) for overnight paraffin infiltration. Processed tissues in cassettes were then placed in a paraffin bath (Sakura Tissue-Tek TEC 5, Sakura Finetek, Torrance, Calif.) after which they were removed from the cassette and oriented in molds. […] Tissue sections were cut at 4 microns from the cooled blocks. Paraffin ribbons with tissue were then laid out on a water bath and the floating tissue sections were collected onto microscope slides. The unstained tissue sections were then mounted on the slide and dried at 60° C. for 20 minutes. Finally, the tissue was deparaffinized and rehydrated for staining by transfer through xylene and a series of decreasing concentrations of alcohol to hematoxylin on an automated stainer (Sakura Tissue-Tek Prisma, Sakura Finetek, Torrance, Calif.). After a tap water rinse, the tissue on the slide was counterstained with eosin, dehydrated in an alcohol series, cleared in xylene and cover slipped (Sakura Tissue-Tek Glas g2) prior to histological examination by a veterinary diagnostician with experience in the histological examination of swine tissues.

[3] = Total firocoxib exposure in piglets as a percentage of sow AUC; type: in vivo, swine
Procedure: The relative transfer of firocoxib from medicated sows to piglets was evaluated by comparing the piglet plasma drug concentration as a percentage of the sow plasma drug concentration at each time point. Total piglet exposure to firocoxib via milk consumed from treated dams was evaluated by comparing the firocoxib AUC for the piglets with the drug AUC calculated for the corresponding dams from each treatment. Exposure percentages were determined using the equation:
[formula] Statistical Analysis

[4] = Necropsy and histopathology examination of nursing piglets at 21 d; type: in vivo, swine; details: for Kidney: Mild tubular ectasia (number of piglets) / Kidney: Moderate ectasia (number of piglets) / Kidney: Prominent ectasia (number of piglets) / Kidney: Rare tubular ectasia (number of piglets) / Kidney: Within normal limits (number of piglets) / Liver: Within normal limits (number of piglets) / Small Intestine: Within normal limits (number of piglets) / Stomach: Mild gastritis (number of piglets) / Stomach: Mild vasculitis, muscle layer (number of piglets) / Stomach: Within normal limits (number of piglets): nursing piglets, 21 d
Procedure: as §1, §2

CC1(C)OC(=O)C(OCC2CC2)=C1c1ccc(S(C)(=O)=O)cc1 [firocoxib]
plasma drug concentrations in piglets [1]: above 10 ng/mL | macroscopic lesions on post-mortem examination ([2]; kidney, liver, stomach and small intestines, sows and piglets): No macroscopic lesions were evident | Kidney: Focal interstitial nephritis (number of sows) ([2]; sows, 0.5 mg/kg IM): 2 | Kidney: Mild tubular ectasia (number of sows) ([2]; sows, 0.5 mg/kg IM): 1 | Kidney: Within normal limits (number of sows) ([2]; sows, 0.5 mg/kg IM): 1 | Liver: Within normal limits (number of sows) ([2]; sows, 0.5 mg/kg IM): 4 | Small Intestine: Within normal limits (number of sows) ([2]; sows, 0.5 mg/kg IM): 4 | Stomach: Within normal limits (number of sows) ([2]; sows, 0.5 mg/kg IM): 4 | Kidney: Focal interstitial nephritis (number of sows) ([2]; sows, 1.0 mg/kg IM): 1 | Kidney: Mild tubular ectasia (number of sows) ([2]; sows, 1.0 mg/kg IM): 2 | Kidney: Within normal limits (number of sows) ([2]; sows, 1.0 mg/kg IM): 1 | Liver: Within normal limits (number of sows) ([2]; sows, 1.0 mg/kg IM): 4 | Small Intestine: Within normal limits (number of sows) ([2]; sows, 1.0 mg/kg IM): 4 | Stomach: Within normal limits (number of sows) ([2]; sows, 1.0 mg/kg IM): 4 | Kidney: Focal interstitial nephritis (number of sows) ([2]; sows, 1.5 mg/kg IM): 0 | Kidney: Mild tubular ectasia (number of sows) ([2]; sows, 1.5 mg/kg IM): 1 | Kidney: Within normal limits (number of sows) ([2]; sows, 1.5 mg/kg IM): 3 | Liver: Within normal limits (number of sows) ([2]; sows, 1.5 mg/kg IM): 4 | Small Intestine: Within normal limits (number of sows) ([2]; sows, 1.5 mg/kg IM): 4 | Stomach: Within normal limits (number of sows) ([2]; sows, 1.5 mg/kg IM): 4 | Kidney: Focal interstitial nephritis (number of sows) ([2]; sows, 2.0 mg/kg IM): 2 | Kidney: Mild tubular ectasia (number of sows) ([2]; sows, 2.0 mg/kg IM): 1 | Kidney: Within normal limits (number of sows) ([2]; sows, 2.0 mg/kg IM): 1 | Liver: Within normal limits (number of sows) ([2]; sows, 2.0 mg/kg IM): 4 | Small Intestine: Within normal limits (number of sows) ([2]; sows, 2.0 mg/kg IM): 4 | Stomach: Within normal limits (number of sows) ([2]; sows, 2.0 mg/kg IM): 4 | kidneys with ectatic tubules (number) ([2]; sows, all treatment groups): 5 | % Exposure (AUClast, piglet vs sow) ([3]; sow dose 0.5 mg/kg): 41.42% | % Exposure (AUC∞, piglet vs sow) ([3]; sow dose 0.5 mg/kg): 43.51% | % Exposure (AUClast, piglet vs sow) ([3]; sow dose 1.0 mg/kg): 46.29% | % Exposure (AUC∞, piglet vs sow) ([3]; sow dose 1.0 mg/kg): 56.50% | % Exposure (AUClast, piglet vs sow) ([3]; sow dose 1.5 mg/kg): 46.83% | % Exposure (AUC∞, piglet vs sow) ([3]; sow dose 1.5 mg/kg): 53.31% | % Exposure (AUC∞, piglet vs sow) ([3]; sow dose 2.0 mg/kg): 26.75% | % Exposure (AUClast, piglet vs sow) ([3]; sow dose 2.0 mg/kg, 2 mg/kg): 25.32% and 25% | Kidney: Mild tubular ectasia (number of piglets) ([4]; sow dose 0.5 mg/kg IM): 5 | Kidney: Moderate ectasia (number of piglets) ([4]; sow dose 0.5 mg/kg IM): 0 | Kidney: Prominent ectasia (number of piglets) ([4]; sow dose 0.5 mg/kg IM): 5 | Kidney: Rare tubular ectasia (number of piglets) ([4]; sow dose 0.5 mg/kg IM): 1 | Kidney: Within normal limits (number of piglets) ([4]; sow dose 0.5 mg/kg IM): 1 | Liver: Within normal limits (number of piglets) ([4]; sow dose 0.5 mg/kg IM): 12 | Small Intestine: Within normal limits (number of piglets) ([4]; sow dose 0.5 mg/kg IM): 12 | Stomach: Mild gastritis (number of piglets) ([4]; sow dose 0.5 mg/kg IM): 5 | Stomach: Mild vasculitis, muscle layer (number of piglets) ([4]; sow dose 0.5 mg/kg IM): 2 | Stomach: Within normal limits (number of piglets) ([4]; sow dose 0.5 mg/kg IM): 5 | Kidney: Mild tubular ectasia (number of piglets) ([4]; sow dose 1.0 mg/kg IM): 9 | Kidney: Moderate ectasia (number of piglets) ([4]; sow dose 1.0 mg/kg IM): 0 | Kidney: Prominent ectasia (number of piglets) ([4]; sow dose 1.0 mg/kg IM): 0 | Kidney: Rare tubular ectasia (number of piglets) ([4]; sow dose 1.0 mg/kg IM): 1 | Kidney: Within normal limits (number of piglets) ([4]; sow dose 1.0 mg/kg IM): 2 | Liver: Within normal limits (number of piglets) ([4]; sow dose 1.0 mg/kg IM): 12 | Small Intestine: Within normal limits (number of piglets) ([4]; sow dose 1.0 mg/kg IM): 12 | Stomach: Mild gastritis (number of piglets) ([4]; sow dose 1.0 mg/kg IM): 6 | Stomach: Mild vasculitis, muscle layer (number of piglets) ([4]; sow dose 1.0 mg/kg IM): 2 | Stomach: Within normal limits (number of piglets) ([4]; sow dose 1.0 mg/kg IM): 4 | Kidney: Mild tubular ectasia (number of piglets) ([4]; sow dose 1.5 mg/kg IM): 9 | Kidney: Moderate ectasia (number of piglets) ([4]; sow dose 1.5 mg/kg IM): 0 | Kidney: Prominent ectasia (number of piglets) ([4]; sow dose 1.5 mg/kg IM): 3 | Kidney: Rare tubular ectasia (number of piglets) ([4]; sow dose 1.5 mg/kg IM): 0 | Kidney: Within normal limits (number of piglets) ([4]; sow dose 1.5 mg/kg IM): 0 | Liver: Within normal limits (number of piglets) ([4]; sow dose 1.5 mg/kg IM): 12 | Small Intestine: Within normal limits (number of piglets) ([4]; sow dose 1.5 mg/kg IM): 12 | Stomach: Mild gastritis (number of piglets) ([4]; sow dose 1.5 mg/kg IM): 6 | Stomach: Mild vasculitis, muscle layer (number of piglets) ([4]; sow dose 1.5 mg/kg IM): 3 | Stomach: Within normal limits (number of piglets) ([4]; sow dose 1.5 mg/kg IM): 3 | Kidney: Mild tubular ectasia (number of piglets) ([4]; sow dose 2.0 mg/kg IM): 5 | Kidney: Moderate ectasia (number of piglets) ([4]; sow dose 2.0 mg/kg IM): 1 | Kidney: Prominent ectasia (number of piglets) ([4]; sow dose 2.0 mg/kg IM): 3 | Kidney: Rare tubular ectasia (number of piglets) ([4]; sow dose 2.0 mg/kg IM): 0 | Kidney: Within normal limits (number of piglets) ([4]; sow dose 2.0 mg/kg IM): 3 | Liver: Within normal limits (number of piglets) ([4]; sow dose 2.0 mg/kg IM): 12 | Small Intestine: Within normal limits (number of piglets) ([4]; sow dose 2.0 mg/kg IM): 12 | Stomach: Mild gastritis (number of piglets) ([4]; sow dose 2.0 mg/kg IM): 2 | Stomach: Mild vasculitis, muscle layer (number of piglets) ([4]; sow dose 2.0 mg/kg IM): 1 | Stomach: Within normal limits (number of piglets) ([4]; sow dose 2.0 mg/kg IM): 9 | kidneys with ectatic tubules (number) ([4]; piglets, all treatment groups): 10 | sections of stomach lining with mild gastritis (number) ([4]; piglets, all treatment groups): 19
